Measurements from patent US6326380A, “Thrombin receptor antagonists” (Schering Corporation, priority 2000, dated 2001).
Like-named read-outs stand apart in the source and are kept apart here.

Key:
Thrombin receptor = molecular target: T1, Thrombin receptor (Homo sapiens, UniProt P25116); experiment: In vitro Thrombin Receptor Antagonist Assay ([3H]haTRAP radioligand binding, platelet membranes); settings: [3H]haTRAP 10 nM, read-out: IC50 (concentration at which a 50% inhibition of thrombin receptor was observed)
T1 construct: Platelet membranes were prepared using a modification of the method of Natarajan et al; tissue North Jersey Blood Center (East Orange, N.J.); host or cells: platelets (platelet concentrates), membranes
T1 sequence (P25116 22-425): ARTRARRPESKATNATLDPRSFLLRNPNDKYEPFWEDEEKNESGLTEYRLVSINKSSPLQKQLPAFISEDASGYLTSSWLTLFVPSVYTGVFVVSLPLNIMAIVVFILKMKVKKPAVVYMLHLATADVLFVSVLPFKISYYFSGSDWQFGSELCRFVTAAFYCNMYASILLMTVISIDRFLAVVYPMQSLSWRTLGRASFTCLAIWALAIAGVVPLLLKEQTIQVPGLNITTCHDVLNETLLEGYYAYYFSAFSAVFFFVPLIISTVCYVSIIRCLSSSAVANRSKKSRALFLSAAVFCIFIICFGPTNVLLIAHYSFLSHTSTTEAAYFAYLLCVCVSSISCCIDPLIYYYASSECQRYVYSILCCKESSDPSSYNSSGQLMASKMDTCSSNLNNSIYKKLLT
Method: In Vitro Testing Procedure for Thrombin Receptor Antagonists:
Preparation of [^3 H]haTRAP
The vessel was attached to the tritium line, frozen in liquid nitrogen and evacuated. […] At the completion of the reaction, the excess tritium was removed and the reacted peptide solution was diluted with DMF (0.5 ml) and filtered to remove the catalyst. The collected DMF solution of the crude peptide was diluted with water and freeze dried to remove the labile tritium. The solid peptide was redissolved in water and the freeze drying process repeated. The tritiated peptide ([^3 H]haTRAP) was dissolved in 0.5 ml of 0.1% aqueous TFA and purified by HPLC using the following conditions: column, Vydac C18, 25 cm×9.4 mm I.D.; mobile phase, (A) 0.1% TFA in water, (B) 0.1% TFA in CH3 CN; gradient, (A/B) from 100/0 to 40/60 over 30 min; flow rate, 5 ml/min; detection, UV at 215 nm.
Preparation of platelet membranes
All steps were carried out at 4° C. under approved biohazard safety conditions. Platelets were centrifuged at 100×g for 20 minutes at 4° C. to remove red cells. The supernatants were decanted and centrifuged at 3000×g for 15 minutes to pellet platelets. Platelets were resuspended in 10 mM Tris-HCl, pH 7.5,150 mM NaCl, 5 mM EDTA, to a total volume of 200 ml and centrifuged at 4400×g for 10 minutes. This step was repeated two additional times. Platelets were resuspended in 5 mM Tris-HCl, pH 7.5, 5 mM EDTA to a final volume of approximately 30 ml and were homogenized with 20 strokes in a Dounce homogenizer. Membranes were pelleted at 41,000×g, resuspended in 40-50 ml 20 mM Tris-HCl, pH 7.5,1 mM EDTA, 0.1 mM dithiothreitol, and 10 ml aliquots were frozen in liquid N2 and stored at -80° C. To complete membrane preparation, aliquots were thawed, pooled, and homogenized with 5 strokes of a Dounce homogenizer. Membranes were pelleted and washed 3 times in 10 mM triethanolamine-HCl, pH 7.4, 5 mM EDTA, and resuspended in 20-25 ml 50 mM Tris-HCl, pH 7.5, 10 mM MgCl2, 1 mM EGTA, and 1% DMSO. Aliquots of membranes were frozen in liquid N2 and stored at -80° C.
High Throughput Thrombin Receptor Radioligand Binding Assay
Stock solutions (10 mM in 100% DMSO) of test compounds were further diluted in 100% DMSO. Unless otherwise indicated, 10 μl of diluted compound solutions and 90 μl of radioligand (a final concentration of 10 nM in 5% DMSO) were added to each well, and the reaction was started by the addition of 100 μl of membranes (40 μg protein/well). […] Compounds were tested at three concentrations (0.1, 1 and 10 μM). The plates were covered and vortex-mixed gently on a Lab-Line Titer Plate Shaker for 1 hour at room temperature. Packard UniFilter GF/C filter plates were soaked for at least 1 hour in 0.1% polyethyleneimine. The incubated membranes were harvested using a Packard FilterMate Universal Harvester and were rapidly washed four times with 300 μl ice cold 50 mM Tris-HCl, pH 7.5, 10 mM MgCl2, 1 mM EGTA. MicroScint 20 scintillation cocktail (25 μl) was added to each well, and the plates were counted in a Packard TopCount Microplate Scintillation Counter. The specific binding was defined as the total binding minus the nonspecific binding observed in the presence of excess (50 μM) unlabeled haTRAP. The % inhibition by a compound of [^3 H]haTRAP binding to thrombin receptors was calculated from the following relationship: […]
A(pF-F)R(ChA)(hR)Y--NH2 and A(pF-F)R(ChA)(hR)(I2 -Y)--NH2, were custom synthesized by AnaSpec Inc. (San Jose, Calif.). […] The gas was subsequently loaded and stored on an IN/US Systems Inc. Trisorber.

[1] = test system: platelet aggregation (platelets, haTRAP or thrombin); experiment: In vitro Platelet Aggregation Inhibition (PAI); format: cell-based; settings: Homo sapiens, read-out: In vitro PAI IC50
Method: In vitro Platelet Aggregation Procedure:
Blood was obtained from healthy human subjects who were aspirin free for at least 7 days by venipuncture using ACD as anticoagulant. Platelet rich plasma was prepared by centrifugation at 100×g for 15 minutes at 15 deg C. Platelets were pelleted at 3000×g and washed twice in buffered saline containing 1 mM EGTA and 20 μg/ml apyrase to inhibit aggregation. Aggregation was performed at room temperature in buffered saline supplemented with 0.2 mg/ml human fibrinogen. Test compound and platelets were preincubated in 96-well flat-bottom plates for 60 minutes. Aggregation was initiated by adding 0.3 μM haTRAP or 0.1 U/ml thrombin and rapidly vortexing the mixture using a Lab Line Titer Plate Shaker (speed 7). Percent aggregation was monitored as increasing light transmittance at 405 nm in a Spectromax Plate Reader.

[2] = test system: platelet aggregation (Whole Blood, haTRAP); experiment: Ex-vivo Platelet Aggregation In Cynomolgus Whole Blood; set-up: species or system cynomolgus monkey
Method: Protocol For Ex-Vivo Platelet Aggregation In Cynomolgus Whole Blood Drug administration and blood collection:
Conscious chaired cynomolgus monkeys are allowed to equilibrate for 30 min. A needle catheter is inserted into a brachial vein for infusion of test drugs. Another needle catheter is inserted into the other brachial or saphenous vein and used for blood sampling. In those experiments where the compound is administered orally only one catheter is used. A baseline blood sample (1-2 ml) is collected in vacutainer tubes containing a thrombin inhibitor CVS 2139 (100 μg/0.1 ml saline) as an anticoaculant. The drug is then infused intravenously over a period of 30 min. Blood samples (1 ml) are collected at 5, 10, 20, 30 min during and 30, 60, 90 min after termination of the drug infusion. In PO experiments the animals are dosed with the drug using a gavage cannula. Blood samples are collected at 0, 30, 60, 90, 120, 180, 240, 300, 360 min after dosing. […]
A 0.5 ml blood sample is added to 0.5 ml of saline and warmed to 37° C. in a Chronolog whole blood aggregometer. […] The agonist (haTRAP) is added by an adjustable volume pipette (5-25 μl) and the aggregation curve is recorded for 10 minutes. Maximum aggregation in 6 minutes following agonist is the value recorded.

[3] = 0.3 μM haTRAP or 0.1 U/ml thrombin, 60 min preincubation

| IC50 (Thrombin receptor) [nM] | Structure (SMILES) | also measured |
| --- | --- | --- |
| 350 | Cc1cccc(/C=C/[C@H]2[C@H]3[C@H](C)OC(=O)[C@H]3C=C3CCCC[C@@H]32)n1 [Example 2E] |  |
| 14 | Cc1ccccc1-c1ccc(/C=C/[C@H]2[C@@H]3CCCC[C@H]3C[C@H]3C(=O)O[C@H](C)[C@@H]23)nc1 [Example 1DK] |  |
| 1600 | Cc1cc(C)nc(/C=C/[C@@H]2[C@H]3CCCC[C@@H]3C[C@@H]3C(=O)O[C@@H](C)[C@H]23)c1 [Example 1A] |  |
|  | C[C@H]1OC(=O)[C@@H]2C[C@@H]3CCCC[C@H]3[C@H](/C=C/c3ccc(-c4cccc(C(F)(F)F)c4)cn3)[C@H]12 [Example 4, (+)-(3R,3aS,4S,4aR,8aS,9aR)-Decahydro-4-[(E)-2-[5-[3-(trifluoromethyl)phenyl]-2-pyridinyl]ethenyl]-3-Methylnaphtho-[2,3-c]furan-1(3H)-one] | IC50 [1]: 67 nM; Ex-vivo C. Monkey Whole Blood PAI ([2]; 3 mpk, oral in betahydroxypropylcyclodextrin as cosolvent): 100% |
| 1140 | CNC(=O)C1Cc2ccccc2C(C=Cc2ccc(-c3cccc(C(F)(F)F)c3)cn2)C1CO (stereo not shown) [Example 7] |  |
|  | CCc1cccc(/C=C/[C@H]2[C@@H]3CCCC[C@H]3C[C@H]3C(=O)O[C@H](C)[C@@H]23)n1 [Example 8, (+)-(3R,3aS,4S,4aR,8aS,9aR)-Decahydro-4-[(E)-2-(6-ethyl-2-pyridinyl)ethenyl]-3-methylnaphtho[2,3-c]furan-1(3H)-one] | IC50 [1]: 300 nM; Ex-vivo C. Monkey Whole Blood PAI ([2]; 10 mpk, i.v. infusion over 30 min. in 5% dextrose): 100% |
| 6 | C[C@H]1OC(=O)[C@@H]2C[C@@H]3CCCC[C@H]3[C@H](/C=C/c3ccc4cc(O)ccc4n3)[C@H]12 [Example 1BN] | IC50 [1, 3]: 100 to 300 nM |
| 10 | O=C1OCC2C1Cc1ccccc1C2C=Cc1ccc(-c2cccc(C(F)(F)F)c2)cn1 (stereo not shown) [Example 3K] |  |
|  | C[C@H]1OC(=O)[C@@H]2C[C@@H]3CCCC[C@H]3[C@H](/C=C/c3ccc(-c4cccc5c4OCO5)cn3)[C@H]12 [Example 1DR] | IC50 [1, 3]: 100 nM |
| 4 | C[C@H]1OC(=O)[C@@H]2C[C@@H]3CCCC[C@H]3[C@H](/C=C/c3ccc(-c4cc(C(F)(F)F)cc(C(F)(F)F)c4)cn3)[C@H]12 [Example 1ES] |  |
